Test results: patent publication US20130131057A1, “NEW BICYCLIC COMPOUNDS AS PI3-K AND MTOR INHIBITORS” (CENTRO NACIONAL DE INVESTIGACIONES ONCOLOGICAS (CNIO, priority 2010, published 2013)
“And” between values parts separate entries of the source, which are not always exact repeats. Equal values may be shown once.

Target: T1, PI3K (p110α/p85α) (Homo sapiens, UniProt P42336)
T1 construct: purchased Carna Biosciences 07CBS-0402A
Assay: PI3K activity assay (ADP Hunter Plus)
Format: biochemical
Details: read-out: PI3Kα IC50
Procedure: The kinase activity was measured by using the commercial ADP Hunter™ Plus assay available from DiscoveRx, (#33-016), which is a homogeneous assay to measure the accumulation of ADP, a universal product of kinase activity. The enzyme, PI3K (p110α/p85α, was purchased from Carna Biosciences (#07CBS-0402A). The assay was done following the manufacturer recommendations with slight modifications: Mainly the kinase buffer was replace by 50 mM HEPES, pH 7.5, 3 mM MgCl2, 100 mM NaCl, 1 mM EGTA, 0.04% CHAPS, 2 mM TCEP and 0.01 mg/ml BGG. The PI3K was assayed in a titration experiment to determine the optimal protein concentration for the inhibition assay. To calculate the IC50 of the ETP-compounds, serial 1:5 dilutions of the compounds were added to the enzyme at a fixed concentration (2.5 μg/ml. The enzyme was preincubated with the inhibitor and 30 μM PIP2 substrate (P9763, Sigma) for 5 min and then ATP was added to a final 50 μM concentration. Reaction was carried out for 1 hour at 25° C. Reagent A and B were sequentially added to the wells and plates were incubated for 30 min at 37° C. Fluorescence counts were read in a Victor instrument (Perkin Elmer) with the recommended settings (544 and 580 nm as excitation and emission wavelengths, respectively). Values were normalized against the control activity included for each enzyme (i.e., 100% PI3 kinase activity, without compound). These values were plot against the inhibitor concentration and were fit to a sigmoid dose-response curve by using the Graphad software.

T1 sequence (P42336 whole entry): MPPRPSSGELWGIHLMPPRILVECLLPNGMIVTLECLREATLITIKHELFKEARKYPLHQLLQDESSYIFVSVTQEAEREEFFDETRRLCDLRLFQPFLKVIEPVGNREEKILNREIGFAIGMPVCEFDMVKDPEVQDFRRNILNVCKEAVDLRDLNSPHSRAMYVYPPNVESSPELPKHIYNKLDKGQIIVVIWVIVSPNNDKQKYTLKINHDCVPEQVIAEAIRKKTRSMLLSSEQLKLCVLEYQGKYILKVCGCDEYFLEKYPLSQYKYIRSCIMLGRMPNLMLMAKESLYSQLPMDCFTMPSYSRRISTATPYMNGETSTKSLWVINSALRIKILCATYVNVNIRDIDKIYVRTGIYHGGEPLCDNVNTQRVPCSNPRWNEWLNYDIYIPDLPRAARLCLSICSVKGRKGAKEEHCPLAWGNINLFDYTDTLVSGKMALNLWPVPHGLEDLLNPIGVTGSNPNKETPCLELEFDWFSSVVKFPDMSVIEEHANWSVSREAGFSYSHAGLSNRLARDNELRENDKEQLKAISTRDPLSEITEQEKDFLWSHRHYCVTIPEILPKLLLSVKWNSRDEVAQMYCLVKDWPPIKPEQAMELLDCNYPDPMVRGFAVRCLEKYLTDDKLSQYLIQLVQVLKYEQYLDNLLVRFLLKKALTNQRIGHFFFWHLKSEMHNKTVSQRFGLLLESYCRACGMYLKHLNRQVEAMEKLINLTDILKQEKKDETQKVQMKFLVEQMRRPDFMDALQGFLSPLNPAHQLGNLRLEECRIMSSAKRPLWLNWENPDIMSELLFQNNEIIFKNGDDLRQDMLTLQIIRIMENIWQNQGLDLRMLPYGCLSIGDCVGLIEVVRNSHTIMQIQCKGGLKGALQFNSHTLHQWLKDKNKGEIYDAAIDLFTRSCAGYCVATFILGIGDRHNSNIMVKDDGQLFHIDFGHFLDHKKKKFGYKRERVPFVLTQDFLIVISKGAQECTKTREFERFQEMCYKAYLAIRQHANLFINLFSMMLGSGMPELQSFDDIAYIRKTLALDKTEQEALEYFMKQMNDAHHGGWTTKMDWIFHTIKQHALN
T1 sequence (P27986 whole entry partner): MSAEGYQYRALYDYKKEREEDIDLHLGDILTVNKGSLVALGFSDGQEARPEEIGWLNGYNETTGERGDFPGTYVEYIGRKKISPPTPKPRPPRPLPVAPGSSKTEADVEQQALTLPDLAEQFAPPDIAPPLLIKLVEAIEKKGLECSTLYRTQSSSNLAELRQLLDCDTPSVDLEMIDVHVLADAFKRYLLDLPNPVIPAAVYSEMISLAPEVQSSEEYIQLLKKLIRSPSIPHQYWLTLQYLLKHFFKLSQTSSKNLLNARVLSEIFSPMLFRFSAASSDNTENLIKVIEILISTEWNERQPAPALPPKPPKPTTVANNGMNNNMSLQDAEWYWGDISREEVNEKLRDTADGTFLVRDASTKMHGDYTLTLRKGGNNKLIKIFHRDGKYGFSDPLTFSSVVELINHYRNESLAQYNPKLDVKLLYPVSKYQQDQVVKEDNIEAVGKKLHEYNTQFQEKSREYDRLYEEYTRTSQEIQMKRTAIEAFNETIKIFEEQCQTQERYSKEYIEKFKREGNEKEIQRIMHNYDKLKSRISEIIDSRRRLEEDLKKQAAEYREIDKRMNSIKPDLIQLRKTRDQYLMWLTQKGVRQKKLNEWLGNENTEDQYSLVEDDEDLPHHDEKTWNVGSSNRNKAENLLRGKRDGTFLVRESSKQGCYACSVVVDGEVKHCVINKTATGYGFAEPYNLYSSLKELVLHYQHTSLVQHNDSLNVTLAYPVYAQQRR

## CN(C)CCCNC(=O)c1cc2c(N3CCOCC3)nc(-c3cnc(N)nc3)cn2n1 [1-09, 6-(2-amino-pyrimidin-5-yl)-4-morpholin-4-yl-pyrazolo[1,5-a]pyrazine-2-carboxylic acid (3-dimethylamino-propyl)-amide]
  IC50: 443 nM

## Nc1ncc(-c2cn3nc(C(=O)N4CCCC4)cc3c(N3CCOCC3)n2)cn1 [1-07, [6-(2-amino-pyrimidin-5-yl)-4-morpholin-4-yl-pyrazolo[1,5-a]pyrazin-2-yl]-pyrrolidin-1-yl-methanone]
  IC50: 9 nM

## Nc1ncc(-c2cn3nc(C(=O)N[C@H]4CC[C@H](O)CC4)cc3c(N3CCOCC3)n2)cn1 [1-10, 6-(2-amino-pyrimidin-5-yl)-4-morpholin-4-yl-pyrazolo[1,5-a]pyrazine-2-carboxylic acid (4-hydroxy-cyclohexyl)-amide]
  IC50: 16 nM

## NC(=O)c1cc2c(N3CCOCC3)nc(-c3cnc(N)nc3)cn2n1 [1-05, 6-(2-amino-pyrimidin-5-yl)-4-morpholin-4-yl-pyrazolo[1,5-a]pyrazine-2-carboxylic acid amide]
  IC50: 14 nM

## Nc1ncc(-c2cn3nc(C(=O)NC4CCOCC4)cc3c(N3CCOCC3)n2)cn1 [1-04]
  IC50: 26 nM

## NC(=O)c1cn2nc(-c3cnc(N)nc3)nc(N3CCOCC3)c2n1 [1-01]
  IC50: 19 nM

## COCCNC(=O)c1cc2c(N3CCOCC3)nc(-c3cnc(N)nc3)cn2n1 [1-03]
  IC50: 29 nM and < 100 nM

## COCCNC(=O)c1cn2nc(-c3cnc(N)nc3)nc(N3CCOCC3)c2n1 [1-02]
  IC50: 3 nM
